Assay results as given in patent US12398155B2, “Thienopyridinone compounds” (Janssen Pharmaceutica NV, priority 2019, dated 2025).

Assays:
[1] = biological target: T1, human FGFR3 wild type enzyme (cytoplasmic domain) (Homo sapiens, UniProt P22607); test: FGFR3 wild type mobility shift assay (enzymatic assay); assay type: biochemical; settings: 75 μM ATP, 50 minutes at 30° C.; read-out: FGFR3 wild type Caliper
T1 construct: human FGFR3 wild type enzyme (cytoplasmic domain, from Cama Biosciences); purchased Cama Biosciences (so in the source)
T1 sequence (P22607 397-806 limits assumed): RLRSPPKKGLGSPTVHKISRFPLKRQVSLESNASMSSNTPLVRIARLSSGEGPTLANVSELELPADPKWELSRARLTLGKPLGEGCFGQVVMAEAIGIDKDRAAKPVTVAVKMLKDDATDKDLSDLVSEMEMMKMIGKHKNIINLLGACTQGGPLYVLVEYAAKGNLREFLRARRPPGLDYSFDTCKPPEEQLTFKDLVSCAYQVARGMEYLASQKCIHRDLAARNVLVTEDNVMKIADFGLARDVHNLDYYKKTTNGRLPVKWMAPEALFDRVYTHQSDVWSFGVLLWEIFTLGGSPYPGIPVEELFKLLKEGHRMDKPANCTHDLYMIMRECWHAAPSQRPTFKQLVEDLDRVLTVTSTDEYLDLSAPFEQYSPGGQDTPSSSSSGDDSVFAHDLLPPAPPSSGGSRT
Method: FGFR3 Wild Type Mobility Shift Assay (Enzymatic Assay)
In a final reaction volume of 25 μL, 0.04 ng/μL human FGFR3 wild type enzyme (cytoplasmic domain, from Cama Biosciences) was incubated with 75 μM ATP, 1 μM FL-peptide 30 substrate and 250 nL of testing compound (1% DMSO final) in assay buffer (100 mM HEPES pH 7.4, 10 mM MgCl2, 0.003% Brij35, 1 mM DTT). After incubation for 50 minutes at 30° C. the reaction was stopped with 10 μL of 0.5M EDTA pH 8.0, and then 25 μL of reaction mixture was transferred to reading plate and measured on Caliper EZ reader II. The substrate-product conversion rate was used as raw data for normalization and concentration-response curve (10 dose points with 4× serial dilution, starting with 10 μM) was plotted using Prism to calculate IC50 (M), pIC50 (−log IC50) and HillSlope value.

[2] = test system: NIH/3T3 cells transfected with control vector; test: NIH/3T3 mock cell proliferation assay (counter assay, general toxicity); assay type: cell-based; settings: Mus musculus, NIH3T3; 72-hr incubation, CellTiter Glo; read-out: NIH/3T3 MOCK CTG
Method: NIH/3T3 Mock Cell Proliferation Assay
(§1) In day 1, 90 μL of cell suspension (NIH/3T3 cells transfected with the same control vector as in the above two proliferation assays) (total 30,000 cells per well in growth medium (DMEM containing 1% Glutamax, 10% FBS and 1% Pen/Strep)) was seeded in a 96-well plate and then incubated overnight at 37° C. and 5% CO2. In day 2, 10 μL of growth medium containing 10-fold stock solution of testing compound was added into cell cultures (9 dose points with 3× serial dilution, starting with 30 μM, 0.3% DMSO final). After 72-hr incubation at 37° C. and 5% CO2, in day 5 a volume of 50 μL CellTiter Glo (CTG) reagent was added into cell-containing 96-well plate and the plate was incubated at room temperature for 10 minutes before RLUs (relative light unit) were measured on a microplate reader with luminescence detection module. The RLU value was normalized to survival % and concentration-response curve was plotted using Prism to calculate IC50 (M), pIC50 (−log IC50) and HillSlope value.

[3] = biological target: T2, NIH/3T3 cells overexpressing FGFR3 V555M-TACC3 fusion protein (Homo sapiens, UniProt P22607, V555M, cells depend on it); test: NIH/3T3 FGFR3 V555M-TACC3 cell proliferation assay; assay type: cell-based; settings: 72-hr incubation, CellTiter Glo; read-out: NIH/3T3 FGFR3 V555M-TACC3 CTG
T2 construct: NIH/3T3 FGFR3 V555M-TACC3 CTG; other: 72-hr incubation, CellTiter Glo; fused on or other part: C-terminal part of TACC3 (coiled-coil) fused behind the FGFR3 kinase domain; Q9Y6A5 (Transforming acidic coiled-coil-containing protein 3)
T2 sequence (P22607 whole entry V555M, the tested form may be a part): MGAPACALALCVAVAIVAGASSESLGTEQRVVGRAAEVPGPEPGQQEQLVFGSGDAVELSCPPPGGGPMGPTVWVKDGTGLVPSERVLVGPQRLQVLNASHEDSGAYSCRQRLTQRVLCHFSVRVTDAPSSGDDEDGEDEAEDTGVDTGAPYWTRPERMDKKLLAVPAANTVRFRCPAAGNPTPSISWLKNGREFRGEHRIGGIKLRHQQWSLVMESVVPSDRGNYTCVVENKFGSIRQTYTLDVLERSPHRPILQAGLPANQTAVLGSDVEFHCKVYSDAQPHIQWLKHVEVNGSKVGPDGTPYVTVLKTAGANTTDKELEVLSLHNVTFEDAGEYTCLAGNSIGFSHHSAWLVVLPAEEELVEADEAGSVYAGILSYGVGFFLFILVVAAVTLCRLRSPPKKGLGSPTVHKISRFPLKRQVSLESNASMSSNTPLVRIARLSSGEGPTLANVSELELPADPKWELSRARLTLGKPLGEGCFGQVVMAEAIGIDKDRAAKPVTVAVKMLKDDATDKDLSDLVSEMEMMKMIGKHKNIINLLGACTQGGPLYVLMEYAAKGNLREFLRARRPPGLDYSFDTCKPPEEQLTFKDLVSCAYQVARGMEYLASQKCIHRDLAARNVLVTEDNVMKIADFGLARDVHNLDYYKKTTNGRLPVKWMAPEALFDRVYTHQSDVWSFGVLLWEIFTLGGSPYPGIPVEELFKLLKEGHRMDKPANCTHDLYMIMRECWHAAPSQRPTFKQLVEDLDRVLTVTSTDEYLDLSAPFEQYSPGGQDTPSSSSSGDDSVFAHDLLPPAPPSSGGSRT
Method: NIH/3T3 FGFR3 V555M-TACC3 Cell Proliferation Assay
as §1, with “cells overexpressing FGFR3 V555M-TACC3 fusion protein)” for “cells transfected with the same control vector as in the above two proliferation assays)”, “with 4×” for “with 3×”, “with 10” for “with 30”, “μM, 0.1%” for “μM, 0.3%”

- IC50 [1]: 0.31 nM
- GI50 [3]: 1.24 nM
Compound: C[C@H](Nc1c(-c2nc3cnc(N4CCOCC4)cc3[nH]2)c(=O)[nH]c2ccsc12)c1ncccn1 [Compound 2, (S)-6-(6-Morpholino-1H-imidazo[4,5-c]pyridin-2-yl)-7-((1-(pyrimidin-2-yl)ethyl)amino)thieno[3,2-b]pyridin-5(4H)-one]
- IC50 [2]: 891 nM
